Patent US20170313674A1, “BENZYLHYDROXIDE DERIVATIVES, PREPARATION THEREOF AND THERAPEUTIC USE THEREOF” (SANOFI, priority 2014, published 2017)

The compounds below were run on mitochondrial ATP production on non-small cell lung carcinoma cell lines NCI-H460 (assay: Mitochondrial ATP analysis (Cell Titer Glo) in NCI-H460 cells). Settings: 1-hour incubation, with sodium iodoacetate (100 μM), concentration inhibiting 50% of mitochondrial ATP production, read-out: IC50 (mito ATP).
Format: cell-based
Protocol: In order to evaluate the inhibitory activity of the all compounds, an in vitro assay was developed which read out is directly linked to mitochondrial complex 1 inhibition. Since mitochondrial complex 1 contributes to the formation of membrane potential coupled to the mitochondrial ATP synthesis, complex 1 inhibition directly leads in cells to the inhibition of mitochondrial ATP production. Cellular ATP contents were measured in presence of either glycolysis inhibitor (sodium iodocetate) and/or mitochondrial inhibitors (F0F1-ATPase inhibitor: oligomycin or mitochondrial uncoupler: FCCP) to determine the ATP production part relying either on glycolytic or on mitochondrial metabolism.
Mitochondrial ATP Analysis
The compounds of the invention were evaluated for their ability to inhibit mitochondrial
ATP was measured using the Promega Cell Titer Glo kit and protocol. In summary, 1,000 cells were plated in 40 μL in a 384 well plate. 24 hours later, medium was replaced by 20 μl culture medium in presence of compounds: cells were treated in replicates of five with control (PBS), oligomycin A (10 μg/ml), FCCP (30 μM), or the compounds of the invention in dose effect both alone or in combination with sodium iodoacetate (100 μM). Following a 1-hour incubation, 20 μL of CellTtiter-glo™ reaction mix were added to each well for a final volume of 40 μL. Plates were then analyzed for luminescence with a Perkin Elmer EnVision. By comparing the different conditions, global ATP and percentages of both glycolytic and mitochondrial ATP were determined.
The mitochondrial ATP production was calculated as the remaining ATP under iodoacetate treatment minus basal ATP (ATP content under iodoacetate and oligomycin treatment). Inhibitory activity of the compounds on mitochondrial ATP in NCI-H460 cells is expressed as the concentration needed to inhibit 50% of mitochondrial ATP production (IC50, M).

Row | SMILES | IC50 [nM]
1 | COc1ccc(C(O)COc2ccc(-c3csc(-c4ccc(OCC(O)c5ccc(OC)c(OC)c5)cc4)n3)cc2)cc1OC (single isomer, unassigned) [Compound I-23, 1-(3,4-dimethoxyphenyl)-2-[4-[2-[4-[2-(3,4-dimethoxyphenyl)-2-hydroxy-ethoxy]phenyl]thiazol-4-yl]phenoxy]ethanol] | 197
2 | COc1ccc(C(O)COc2ccc(-c3nsc(-c4ccc(OCC(O)c5ccc(OC)c(OC)c5)cc4)n3)cc2)cc1OC (single isomer, unassigned) [Compound I-41, 1-(3,4-dimethoxyphenyl)-2-[4-[5-[4-[2-(3,4-dimethoxyphenyl)-2-hydroxy-ethoxy]phenyl]-1,2,4-thiadiazol-3-yl]phenoxy]ethanol] | 539
3 | COc1ccc(C(O)COc2ccc(-c3nc(-c4ccc(OC(C)(C)C(O)c5ccc(OC)c(OC)c5)cc4)cs3)cc2)cc1OC (single isomer, unassigned) [Compound I-67, 1-(3,4-dimethoxyphenyl)-2-[4-[2-[4-[2-(3,4-dimethoxyphenyl)-2-hydroxy-ethoxy]phenyl]thiazol-4-yl]phenoxy]-2-methyl-propan-1-ol] | 156

The next lines start with the values.

Row | IC50 [nM] | SMILES
4 | 8270 | COc1ccc(C(O)COc2ccc(-c3nc(C)c(-c4ccc(OCC(O)c5ccc(OC)c(OC)c5)cc4)o3)cc2)cc1OC (single isomer, unassigned) [Compound I-5, 1-(3,4-dimethoxyphenyl)-2-[4-[2-[4-[2-(3,4-dimethoxyphenyl)-2-hydroxy-ethoxy]phenyl]-4-methyl-oxazol-5-yl]phenoxy]ethanol]
5 | > 10000 | COc1ccc(C(O)COc2ccc(-c3csc(-c4ccc(OCC(O)c5ccc(OC)c(OC(F)F)c5)cc4)n3)cc2)cc1OC(F)F (single isomer, unassigned) [Compound I-49, 1-[3-(difluoromethoxy)-4-methoxy-phenyl]-2-[4-[2-[4-[2-[3-(difluoromethoxy)-4-methoxy-phenyl]-2-hydroxy-ethoxy]phenyl]thiazol-4-yl]phenoxy]ethanol]
6 | 1340 | COc1ccc(C(O)COc2ccc(-c3csc(-c4ccc(OCC(O)c5ccc(OC)c(OC(F)F)c5)cc4)n3)cc2)cc1OC(F)F (single isomer, unassigned) [Compound I-50, 1-[3-(difluoromethoxy)-4-methoxy-phenyl]-2-[4-[2-[4-[2-[3-(difluoromethoxy)-4-methoxy-phenyl]-2-hydroxy-ethoxy]phenyl]thiazol-4-yl]phenoxy]ethanol]
7 | > 10000 | COc1cc(C(O)COc2ccc(-c3csc(-c4ccc(OCC(O)c5ccc(OC(F)F)c(OC)c5)cc4)n3)cc2)ccc1OC(F)F (single isomer, unassigned) [Compound I-52, 1-[4-(difluoromethoxy)-3-methoxy-phenyl]-2-[4-[2-[4-[2-[4-(difluoromethoxy)-3-methoxy-phenyl]-2-hydroxy-ethoxy]phenyl]thiazol-4-yl]phenoxy]ethanol]
8 | 32.8 | COc1ccc(C(O)COc2ccc(-c3nc(-c4ccc(OC(C)(C)C(O)c5ccc(OC)c(OC)c5)cc4)cs3)cc2)cc1OC (single isomer, unassigned) [Compound I-68, 1-(3,4-dimethoxyphenyl)-2-[4-[2-[4-[2-(3,4-dimethoxyphenyl)-2-hydroxy-ethoxy]phenyl]thiazol-4-yl]phenoxy]-2-methyl-propan-1-ol]

Same assay, conditions: Homo sapiens, NCI-H460, 1 h, 1-hour incubation, with sodium iodoacetate (100 μM), concentration inhibiting 50% of mitochondrial ATP production, read-out: IC50 (mito ATP)

Row | SMILES | IC50 [nM]
9 | COc1ccc(C(O)C(C)(C)Oc2ccc(-c3csc(-c4ccc(OC(C)(C)C(O)c5ccc(OC)c(OC)c5)cc4)n3)cc2)cc1OC (single isomer, unassigned) [Compound I-28, 1-(3,4-dimethoxyphenyl)-2-[4-[2-[4-[2-(3,4-dimethoxyphenyl)-2-hydroxy-1,1-dimethyl-ethoxy]phenyl]thiazol-4-yl]phenoxy]-2-methyl-propan-1-ol] | 41.8
10 | COc1cc(C(O)COc2ccc(-c3csc(-c4ccc(OCC(O)c5ccc(OC(F)F)c(OC)c5)cc4)n3)cc2)ccc1OC(F)F (single isomer, unassigned) [Compound I-51, 1-[4-(difluoromethoxy)-3-methoxy-phenyl]-2-[4-[2-[4-[2-[4-(difluoromethoxy)-3-methoxy-phenyl]-2-hydroxy-ethoxy]phenyl]thiazol-4-yl]phenoxy]ethanol] | > 10000
11 | COc1cc(C(O)COc2ccc(-c3coc(-c4ccc(OCC(O)c5ccc(Cl)c(OC)c5)cc4)n3)cc2)ccc1Cl (stereo not drawn) [Compound I-15, 1-(4-chloro-3-methoxy-phenyl)-2-[4-[2-[4-[2-(4-chloro-3-methoxy-phenyl)-2-hydroxy-ethoxy]phenyl]oxazol-4-yl]phenoxy]ethanol] | 1550
12 | COc1cc(C(O)COc2ccc(-c3coc(-c4ccc(OCC(O)c5ccc(F)c(OC)c5)cc4)n3)cc2)ccc1F (stereo not drawn) [Compound I-16, 1-(4-fluoro-3-methoxy-phenyl)-2-[4-[2-[4-[2-(4-fluoro-3-methoxy-phenyl)-2-hydroxy-ethoxy]phenyl]oxazol-4-yl]phenoxy]ethanol] | 354
13 | COc1ccc(C(O)COc2ccc(-c3c[nH]c(-c4ccc(OCC(O)c5ccc(OC)c(OC)c5)cc4)n3)cc2)cc1OC (stereo not drawn) [Compound I-53, 1-(3,4-dimethoxyphenyl)-2-[4-[2-[4-[2-(3,4-dimethoxyphenyl)-2-hydroxy-ethoxy]phenyl]-1H-imidazol-4-yl]phenoxy]ethanol] | 956
14 | COc1ccc(C(O)C(C)(C)Oc2ccc(-c3c[nH]c(-c4ccc(OC(C)(C)C(O)c5ccc(OC)c(OC)c5)cc4)n3)cc2)cc1OC (stereo not drawn) [Compound I-54, 1-(3,4-dimethoxyphenyl)-2-[4-[2-[4-[2-(3,4-dimethoxyphenyl)-2-hydroxy-1,1-dimethyl-ethoxy]phenyl]-1H-imidazol-4-yl]phenoxy]-2-methyl-propan-1-ol] | 672

Second part, the compound after the results:

Row | IC50 [nM] | SMILES
15 | 281 | COc1ccc(C(O)COc2ccc(-c3nsc(-c4ccc(OCC(O)c5ccc(OC)c(OC)c5)cc4)n3)cc2)cc1OC (single isomer, unassigned) [Compound I-40, 1-(3,4-dimethoxyphenyl)-2-[4-[5-[4-[2-(3,4-dimethoxyphenyl)-2-hydroxy-ethoxy]phenyl]-1,2,4-thiadiazol-3-yl]phenoxy]ethanol]
16 | > 10000 | COc1ccc(C(O)COc2ccc(-c3nc(C)c(-c4ccc(OCC(O)c5ccc(OC)c(OC)c5)cc4)o3)cc2)cc1OC (single isomer, unassigned) [Compound I-46, 1-(3,4-dimethoxyphenyl)-2-[4-[2-[4-[2-(3,4-dimethoxyphenyl)-2-hydroxy-ethoxy]phenyl]-4-methyl-oxazol-5-yl]phenoxy]ethanol]
17 | 3960 | COc1ccc(C(O)COc2ccc(-c3coc(-c4ccc(OCC(O)c5ccc(OC)c(F)c5)cc4)n3)cc2)cc1F (stereo not drawn) [Compound I-17, 1-(3-fluoro-4-methoxy-phenyl)-2-[4-[2-[4-[2-(3-fluoro-4-methoxy-phenyl)-2-hydroxy-ethoxy]phenyl]oxazol-4-yl]phenoxy]ethanol]
18 | 1420 | COc1cc(C(O)COc2ccc(-c3coc(-c4ccc(OCC(O)c5cc(OC)c(OC)c(OC)c5)cc4)n3)cc2)cc(OC)c1OC (stereo not drawn) [Compound I-20, 2-[4-[2-[4-[2-hydroxy-2-(3,4,5-trimethoxyphenyl)ethoxy]phenyl]oxazol-4-yl]phenoxy]-1-(3,4,5-trimethoxyphenyl)ethanol]
